From patent US10925971B2, “Methods of treating PRLR positive breast cancer” (Regeneron Pharmaceuticals, Inc., priority 2016, dated 2021)
Square brackets hold non-standard residues; d marks the D form. Peptide text beside a SMILES is read from it. * marks the point of attachment. Dolaproine = CO[C@@H]([C@@H]1CCCN1)[C@@H](C)C(=O)O; Dil = CC[C@H](C)[C@H](NC)[C@@H](CC(=O)O)OC; X1 = C[C@@H](N*)[C@@H](O)c1ccccc1; NMeV = CN[C@H](C(=O)O)C(C)C

Legend:
[1] = tested on: HEK293 (293) cells; experiment: In vitro cell viability (cell kill) assay, CCK8; assay type: cell-based, human; conditions: 293; Table 19
Procedure, shortened: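 Readout: CCK8 absorbance at 450 nm (293, PC3) or Hoechst-stained nuclear counts after formaldehyde fixation (MCF7). hPRLR-expressing lines, seeded overnight, got DM1 ADCs (non-cleavable SMCC linker) or DM1-SMe, 500 nM–5 pM, 3 days. Viability as % untreated after digitonin background; IC50 by four-parameter logistic.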

[2] = tested on: PC3 cells; experiment: In vitro cell viability (cell kill) assay, CCK8; assay type: cell-based, human; conditions: Table 18
Procedure, shortened: (§1)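 Cells stably overexpressing human PRLR (transfected or lentiviral, FACS-enriched) were treated for 3 days with anti-PRLR-SMCC-DM1 ADCs or free DM1-SMe at 500 nM to 5 pM. HEK293 and PC3 viability was read by CCK8 OD450; MCF7 by Hoechst nuclear counts. Digitonin background subtracted; % of untreated; IC50 from 10-point four-parameter fit.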

[3] = tested on: PC3/hPRLR cells; experiment: In vitro cell viability (cell kill) assay, CCK8; assay type: cell-based, human; conditions: Table 18
Procedure, shortened: as §1

[4] = tested on: MCF7 (MCF7/ATCC) cells; experiment: In vitro cell viability (cell kill) assay, nuclear counts; assay type: cell-based, human; conditions: MCF7/ATCC
Text: (§2) PRLR-overexpressing cells, including HEK293, PC3, MCF7 and NCI-N87, were generated to assess the ability of anti-PRLR conjugated antibodies to reduce cell viability. For comparative purposes, PC3 and T47D cells with overexpressed ErbB2 were also generated, as well as an MCF7 cell line over-expressing both hPRLR and hErbB2. Briefly, Lipofectamine® 2000-mediated transfection methodology was utilized to generate HEK293 cells expressing human PRLR (HEK293/hPRLR) or human ErbB2 (HEK293/hErbB2). Lipofectamine LTX with Plus Reagent was used to generate PC3 cells expressing human PRLR (PC3/hPRLR) or human ErbB2 (PC3/hErbB2). Lentiviral-mediated transduction was utilized to generate MCF7 cells expressing human PRLR (MCF7/hPRLR), NCI-N87 cells expressing human PRLR (NCI-N87/hPRLR), T47D cells over-expressing human ErbB2 (T47D/hErbB2), and MCF7 cells expressing both human PRLR and human ErbB2 (MCF7/hPRLR/hErbB2). All lines were selected for at least two weeks in complete growth media plus appropriate selection reagents. Stably expressing populations were enriched for PRLR expression via FACS using the anti PRLR antibody Control I.
(§3) Next, the ability of anti-PRLR-DM1 antibody-drug conjugates (i.e., anti-PRLR antibodies conjugated to DM1 via a non-cleavable linker [SMCC]) to reduce cell viability was determined using in vitro cell based assays. Cells were seeded in PDL-coated 96 well plates at 1500 to 10000 cells per well in complete growth media and allowed to grow overnight. For cell viability curves, ADCs or free DM1 (as the methyl disulfide derivative DM1-SMe) were added to the cells at final concentrations ranging from 500 nM to 5 pM and incubated for 3 days. The 293, PC3 and T47D cells were incubated with CCK8 (Dojindo, Rockville, Md.) for the final 1-3 hours and the absorbance at 450 nm (OD450) was determined on a Flexstation3 (Molecular Devices, Sunnyvale, Calif.). MCF7 cells were treated with Hoechst 33342 nuclear stain while being fixed with 4% formaldehyde. Images were acquired on the ImageXpress micro XL (Molecular Devices, Sunnyvale, Calif.) and nuclear counts were determined via Columbus image analysis software (Perkin Elmer, Shelton, Conn.). Background OD450 values (PC3, 293, and T47D) or nuclear counts (MCF7) from digitonin (40 nM) treated cells was subtracted from all wells and viability was expressed as a percentage of the untreated controls. IC50 values were determined from a four-parameter logistic equation over a 10-point response curve (GraphPad Prism).

[5] = tested on: MCF7/hPRLR (MCF7/PRLR) cells; experiment: as above; assay type: cell-based, human
Text: as §2, §3

[6] = tested on: T47D cells; experiment: In vitro cell viability (cell kill) assay, CCK8; assay type: cell-based, human; conditions: T47D, Table 19; for IC50: read-out: IC50
Description: as §3

[7] = tested on: MCF7/PRLR tumors; experiment: MCF7/PRLR breast cancer xenograft, tumor size and tumor growth inhibition; assay type: in vivo, NCr nude mice; conditions: NCr Nude mice, multi-dose 0.2 mg/kg
Text: (§4) Briefly, 20×10^6 MCF7/PRLR cells (ATCC HTB-22 transfected with full length hPRLR as previously described) were implanted subcutaneously into the left mammary fat pad of female NCr nude mice. In other studies, 10×10^6 PC3/PRLR (ATCC CRL-1435 transfected with full length hPRLR as previously described) were implanted subcutaneously into the left flank of male SCID mice. Additionally, 10×10^6 parental T47D (ATCC HTB-133) or 7.5×10^10 T47D #11 cells (ATCC HTB-133 serially passaged in vivo as described below) were subcutaneously implanted into the left flank of female CB17 SCID mice. All mice were obtained from Taconic (Hudson, N.Y.). Each bolus of cells was supplemented with a 90-day estrogen release pellet (1.7 mg/pellet; Innovative Research America, Sarasota Fla.). […] Control reagents included PBS vehicle, free methyl-disulfide DM1 (DM1-SMe) and isotype Control 1-DM1.
(§5) In multi-dose studies, mice were dosed once a week for a total of three weeks with tumor volumes and body weights being monitored twice weekly throughout the study. Test ADCs were dosed at 5 and/or 15 mg/kg in the multi-dose studies. In single-dose studies, mice received a single dose of test ADC, and tumor volumes and body weights were monitored twice weekly throughout the study. Test ADCs were dosed at 1, 2.5, 5, and 15 mg/kg in the single-dose studies. Average tumor size as well as tumor growth inhibition relative to the vehicle treated group were calculated for each group. Tumors were measured with calipers twice a week until the average size of the vehicle group reached 1000 mm^3. Tumor size was calculated using the formula (length×width^2)/2. Tumor growth inhibition was calculated according to the following formula: (1−((Tfinal−Tinitial)/(Cfinal−Cinitial)))*100, where T (treated group) and C (control group) represent the mean tumor mass on the day the vehicle group reached 1000 mm^3. […] Results are summarized in Tables 21-25 (multi-dose) and Table 26 (single dose). (NT=not tested in the particular experiment shown).

[8] = tested on: PC3/PRLR tumors; experiment: PC3/PRLR xenograft, tumor size and tumor growth inhibition; assay type: in vivo, SCID mice; conditions: SCID mice, multi-dose 0.2 mg/kg
Text: as §4, §5

[9] = tested on: T47D#11 tumors; assay type: in vivo, CB17 SCID mice; conditions: mouse, in vivo, 0.2 mg/kg
Text: as §4, §5

[10] = tested on: TM00107 PDX tumors; experiment: TM00107 patient derived xenograft (PDX) breast cancer model, tumor volume; assay type: in vivo, NOD SCID gamma (NSG) mice; conditions: intravenous every 4 days, 4 doses
Description: Efficacy of H1H6958N2-DM1 was also assessed in a patient derived xenograft (PDX) model of breast cancer that may better represent the response in patients. NOD SCID gamma (NSG) mice bearing tumor fragments of the TM00107 PDX breast cancer tumor were sourced from The Jackson Laboratories. The TM00107 PDX model was derived from an ER+/−/PR−/HER2− metastatic breast adenocarcinoma. PRLR expression was confirmed by microarray analysis and immunohistochemistry on tumor sample slides provided by The Jackson Laboratory (data not shown). When tumors were an average volume of ˜400-600 mm^3 (21 days post implantation), mice were randomized into treatment groups (n=7 mice/group) and were administered H1H6958N2-DM1, control ADC, or vehicle control by intravenous injection once weekly for a total of 4 weeks. A separate treatment group was administered paclitaxel by intravenous injection every 4 days for a total of 4 doses.

[11] = MCF7/PRLR tumors TRIAL #1, Day 52
[12] = MCF7/PRLR tumors TRIAL #2, Day 63
[13] = PC3/PRLR tumors TRIAL #1, Day 63
[14] = PC3/PRLR tumors TRIAL #2, Day 55

COc1cc2cc(c1Cl)N(C)C(=O)C[C@H](OC(=O)[C@H](C)N(C)C(=O)CCSSC)[C@]1(C)O[C@H]1[C@H](C)[C@@H]1C[C@@](O)(NC(=O)O1)[C@H](OC)/C=C/C=C(\C)C2 [DM1-SMe, reference compound]
% Kill [1]: 95% | IC50 [1]: 1.2 nM | % Kill [2]: 90% | IC50 [2]: 0.5 nM | % Kill [3]: 70% | IC50 [3]: 1 nM | % Kill ([4]; Table 18): 80% | IC50 ([4]; Table 18): 3 nM | % Kill ([4]; Table 20): 80% | IC50 ([4]; Table 20): 1.3 nM | % Kill ([5]; Table 18): 86% | IC50 ([5]; Table 18): 1.9 nM | % Kill ([5]; Table 20): 80% | IC50 ([5]; Table 20): 0.8 nM | % Kill [6]: 100% | IC50 [6]: 1.5 nM | Average Tumor Growth Inhibition (%) [7, 11]: 57% | Final Tumor size mm^3 (mean ± SEM) [7, 11]: 625 ± 141 mm^3 | Average Tumor Growth Inhibition (%) [7, 12]: −33% | Final Tumor size mm^3 (mean ± SEM) [7, 12]: 1080 ± 451 mm^3 | Average Tumor Growth Inhibition (%) [8, 13]: −5% | Final Tumor size mm^3 (mean ± SEM) [8, 13]: 1361 ± 120 mm^3 | Average Tumor Growth Inhibition (%) [8, 14]: 7% | Final Tumor size mm^3 (mean ± SEM) [8, 14]: 1147 ± 59 mm^3 | Average Tumor Growth Inhibition (%) [9]: −19% | Final Tumor size mm^3 (mean ± SEM) [9]: 1433 ± 23 mm^3

CC[C@H](C)[C@@H]([C@@H](CC(=O)N1CCC[C@H]1[C@H](OC)[C@@H](C)C(=O)N[C@H](C)[C@@H](O)c1ccccc1)OC)N(C)C(=O)[C@@H](NC(=O)[C@@H](NC)C(C)C)C(C)C [Free MMAE] (H-[NMeV]V[Dil][Dolaproine]-X1)
% Kill [1]: 100% | IC50 [1]: 0.9 nM | % Kill [2]: 90% | IC50 [2]: 1.4 nM | % Kill [3]: 77% | IC50 [3]: 1 nM | % Kill ([4]; Table 18): 83% | IC50 ([4]; Table 18): 2.4 nM | % Kill ([4]; Table 20): 80% | IC50 ([4]; Table 20): 2.4 nM | % Kill ([5]; Table 18): 95% | IC50 ([5]; Table 18): 1.5 nM | % Kill ([5]; Table 20): 95% | IC50 ([5]; Table 20): 1.5 nM | % Kill [6]: 100% | IC50 [6]: 1 nM

CC(=O)O[C@H]1C(=O)[C@@]2(C)[C@H]([C@H](OC(=O)c3ccccc3)[C@]3(O)C[C@H](OC(=O)[C@H](O)[C@@H](NC(=O)c4ccccc4)c4ccccc4)C(C)=C1C3(C)C)[C@]1(OC(C)=O)CO[C@@H]1C[C@@H]2O [paclitaxel, reference compound]
tumor growth [10]: did not have an effect on tumor growth
